# Assays:
# melatonin ML1a receptor = molecular target: T1, melatonin ML1a receptor (Homo sapiens, UniProt P48039); experiment: Melatonergic receptor binding, 2-[125I]-iodomelatonin, ML1a; settings: NIH-3T3 membranes, 0.1 nM 2-[125I]-iodomelatonin, 37° C. 1 hour
# T1 construct: expressed in transfected cells; membrane homogenates
# Procedure: (§1) Melatonergic Receptor Binding Activity
# (§2) (a) TME=50 mM Tris buffer containing 12.5 mM MgCl2, and 2 mM EDTA, pH 7.4 at 37° C., with concentrated HCl.
# (§3) (b) Wash buffer: 20 mM Tris base containing 2 mM MgCl2, pH 7.4 at room temperature.
# (§4) (c) 10^−4 M melatonin (10^−5 M final concentration).
# (d) 2-[^125I]-iodomelatonin ML1a, 0.1 nM final concentration.
# (§5) 2. Membrane Homogenates: The melatonin ML1a and ML1b receptors cDNA were individually subcloned into pcDNA3 and introduced into NIH-3T3 cells using Lipofectamine. Transformed NIH-3T3 cells resistant to geneticin (G-418) were isolated, and single colonies expressing high levels of 2[^125I]-iodomelatonin binding were isolated. Cells are maintained in DMEM supplemented with 10% calf serum and G-418 (0.5 g/liter). Cells are grown to confluency in T-175 flasks, scraped using Hank's balanced salt solution, and frozen at −80° C. For preparing membrane homogenates, pellets are thawed on ice, and re-suspended in TME buffer in the presence of 10 μg/ml aprotinin and leupeptin, and 100 μM phenylmethylsulfonylfluoride. The cells were then homogenized using a dounce homogenizer, and centrifuged. The resulting pellet was re-suspended with dounce homogenizer in TME (supplemented with the above protease inhibitors) and frozen. On the day of assay, a small aliquot was thawed on ice and re-suspended in the ice cold TME (1:50-1:100 v/v) and held on ice until assayed.
# (§6) 3. Incubation: 37° C. for 1 hour. Reaction is terminated by filtration. Filters were washed 3 times.
# (§7) 4. References: Reppert, S. M. et al., Neuron, 13, p. 1177-1185 (1994); and Reppert, S. M. et al., Proc. Natl. Acad. Sci. USA, 92, p. 8734-8738 (1995).
# (§8) The compounds of the present invention have affinity for receptors of the endogenous pineal hormone, melatonin, as determined in receptor binding assays described above in Tables I to III for the ML1a and ML1b (human) receptors. Melatonin is involved in the regulation of a variety of biological rhythms and exerts its biological effects via interaction with specific receptors. There is evidence that administration of melatonin agonists are of clinical utility in the treatment of various conditions regulated by melatonin activity. Such conditions include depression, jet-lag, work-shift syndrome, sleep disorders, glaucoma, some disorders associated with reproduction, cancer benign prostatic hyperplasia, immune disorders, and neuroendocrine disorders.
# melatonin ML1b receptor = molecular target: T2, melatonin ML1b receptor (Homo sapiens, UniProt P49286); experiment: Melatonergic receptor binding, 2-[125I]-iodomelatonin, ML1b; settings: NIH-3T3 membranes, 0.2 nM 2-[125I]-iodomelatonin, 37° C. 1 hour
# T2 construct: expressed in transfected cells; membrane homogenates
# T2 sequence (P49286 1-362): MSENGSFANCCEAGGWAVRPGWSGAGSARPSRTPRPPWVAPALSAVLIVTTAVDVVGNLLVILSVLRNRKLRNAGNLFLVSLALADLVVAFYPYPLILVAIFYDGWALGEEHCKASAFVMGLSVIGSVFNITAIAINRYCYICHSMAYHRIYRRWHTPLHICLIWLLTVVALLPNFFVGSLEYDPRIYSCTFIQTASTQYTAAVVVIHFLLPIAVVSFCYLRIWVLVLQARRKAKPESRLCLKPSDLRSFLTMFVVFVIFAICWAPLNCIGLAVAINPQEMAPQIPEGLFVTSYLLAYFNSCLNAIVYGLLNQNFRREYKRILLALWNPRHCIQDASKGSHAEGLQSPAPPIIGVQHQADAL
# Procedure: as §1, §2, §3, §4
# (e) 2-[^125I]-iodomelatonin ML1b, 0.2 nM final concentration.
# as §5, §6, §7, §8
# T1 sequence (P48039 whole entry): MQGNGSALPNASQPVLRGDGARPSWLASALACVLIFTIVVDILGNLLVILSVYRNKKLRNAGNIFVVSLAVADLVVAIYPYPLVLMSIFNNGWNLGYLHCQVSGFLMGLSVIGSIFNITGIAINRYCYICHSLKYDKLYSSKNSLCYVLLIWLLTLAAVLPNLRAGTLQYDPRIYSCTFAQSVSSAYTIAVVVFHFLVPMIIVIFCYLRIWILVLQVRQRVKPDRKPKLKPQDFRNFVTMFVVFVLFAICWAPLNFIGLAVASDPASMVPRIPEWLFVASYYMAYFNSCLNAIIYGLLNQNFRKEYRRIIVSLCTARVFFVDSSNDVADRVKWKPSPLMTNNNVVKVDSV
SMILES,IC50 (melatonin ML1a receptor; Table II),IC50 (melatonin ML1b receptor; Table II),IC50 (melatonin ML1a receptor; Table I),IC50 (melatonin ML1b receptor; Table I),other results
"CCNC(=O)NC[C@@H]1C[C@H]1c1cccc2nc(CC)oc12 [Example 81, N-{[(1R,2R)-2-(2-Ethylbenzoxazol-7-yl)cyclopropyl]methyl}(ethylamino)carboxamide]",–,–,–,–,IC50 (melatonin ML1a receptor; Table III): < 0.01 µM; IC50 (melatonin ML1b receptor; Table III): < 0.01 µM
"CCc1nc2cc(-c3ccc(C(F)(F)F)cc3)cc(CCCNC(=O)c3ccccc3)c2o1 [Example 61, N-(3-{2-Ethyl-5-[4-(trifluoromethyl)phenyl]benzoxazol-7-yl}propyl)benzamide]",0.01 to 0.25 µM,> 0.25 µM,–,–,–
"CCNC(=O)NCCCc1cccc2nc(-c3ccccc3)oc12 [Example 24, (Ethylamino)-N-[3-(2-phenylbenzoxazol-7-yl)propyl]carboxamide]",–,–,> 0.25 µM,0.01 to 0.25 µM,–
"CCc1nc2cc(Br)cc(CCCNC(=O)c3ccccc3)c2o1 [Example 69, N-[3-(5-Bromo-2-ethylbenzoxazol-7-yl)propyl]benzamide]",> 0.25 µM,> 0.25 µM,–,–,–
"O=C(NCCCc1cccc2nc(CCCCc3ccccc3)oc12)C1CC1 [Example 29, Cyclopropyl-N-{3-[2-(4-phenylbutyl)benzoxazol-7-yl]propyl}carboxamide]",–,–,< 0.01 µM,0.01 to 0.25 µM,–
"CCc1nc2ccc(-c3ccccc3)c(CCCNC(=O)c3ccccc3)c2o1 [Example 56, N-[3-(2-Ethyl-6-phenylbenzoxazol-7-yl)propyl]benzamide]",0.01 to 0.25 µM,0.01 to 0.25 µM,–,–,–
"CCCc1nc2cccc([C@@H]3C[C@H]3CNC(=O)NCC)c2o1 [Example 92, N-{[(1R,2R)-2-(2-Propylbenzoxazol-7-yl)cyclopropyl]methyl}(ethylamino)carboxamide]",–,–,–,–,IC50 (melatonin ML1a receptor; Table III): < 0.01 µM; IC50 (melatonin ML1b receptor; Table III): < 0.01 µM
"CCCC(=O)NCCCc1cccc2nc(-c3ccccc3)oc12 [Example 21, N-[3-(2-Phenylbenzoxazol-7-yl)propyl]butanamide]",–,–,0.01 to 0.25 µM,0.01 to 0.25 µM,–
"CCCc1nc2cccc([C@@H]3C[C@H]3CNC(=O)CC)c2o1 [Example 84, N-{[(1R,2R)-2-(2-Propylbenzoxazol-7-yl)cyclopropyl]methyl}propanamide]",–,–,–,–,IC50 (melatonin ML1a receptor; Table III): < 0.01 µM; IC50 (melatonin ML1b receptor; Table III): < 0.01 µM
"O=C(NCCCc1cccc2nc(-c3ccccc3)oc12)C1CC1 [Example 23, Cyclopropyl-N-[3-(2-phenylbenzoxazol-7-yl)propyl]carboxamide]",–,–,0.01 to 0.25 µM,0.01 to 0.25 µM,–
"CCc1nc2cc(-c3ccc(F)cc3)cc(CCCNC(=O)c3ccccc3)c2o1 [Example 59, N-{3-[2-Ethyl-5-(4-fluorophenyl)benzoxazol-7-yl]propyl}benzamide]",> 0.25 µM,> 0.25 µM,–,–,–
"CCc1nc2cc(-c3ccc(OC)cc3)cc(CCCNC(C)=O)c2o1 [Example 62, N-{3-[2-Ethyl-5-(4-methoxyphenyl)benzoxazol-7-yl]propyl}acetamide]",0.01 to 0.25 µM,0.01 to 0.25 µM,–,–,–
"CCCc1nc2cccc([C@@H]3C[C@H]3CNC(=O)C3CC3)c2o1 [Example 90, N-{[(1R,2R)-2-(2-Propylbenzoxazol-7-yl)cyclopropyl]methyl}cyclopropylcarboxamide]",–,–,–,–,IC50 (melatonin ML1a receptor; Table III): < 0.01 µM; IC50 (melatonin ML1b receptor; Table III): < 0.01 µM

# Now from value to compound, other results behind:
IC50 (melatonin ML1a receptor; Table II),IC50 (melatonin ML1b receptor; Table II),IC50 (melatonin ML1a receptor; Table I),IC50 (melatonin ML1b receptor; Table I),SMILES,other results
0.01 to 0.25 µM,< 0.01 µM,–,–,"C=Cc1ccc2nc(CC)oc2c1CCCNC(C)=O [Example 43, N-Acetyl-7-(3-aminopropyl)-6-vinyl-2-ethylbenzoxazole]",–
–,–,0.01 to 0.25 µM,> 0.25 µM,"CC(C)c1nc2cccc(CCCNC(=O)C3CC3)c2o1 [Example 38, Cyclopropyl-N-{3-[2-(methylethyl)benzoxazol-7-yl]propyl}carboxamide]",–
–,–,0.01 to 0.25 µM,0.01 to 0.25 µM,"CCCc1nc2cccc(CCCNC(=O)C(C)C)c2o1 [Example 16, 2-Methyl-N-[3-(2-propylbenzoxazol-7-yl)propyl]propanamide]",–
–,–,0.01 to 0.25 µM,0.01 to 0.25 µM,"CCCc1nc2cccc(CCCNC(=O)C3CC3)c2o1 [Example 17, Cyclopropyl-N-[3-(2-propylbenzoxazol-7-yl)propyl]carboxamide]",–
–,–,> 0.25 µM,0.01 to 0.25 µM,"CCCc1nc2cccc(CCCNC(=O)NCC)c2o1 [Example 18, (Ethylamino)-N-[3-(2-propylbenzoxazol-7-yl)propyl]carboxamide]",–

# Source: patent US6737431B2 (Bristol-Myers Squibb Company, priority 2002, dated 2004)
